Reference: patent US20110245316A1, “PREVENTION OR DELAY OF ONSET OF ORAL MUCOSITIS” (SCICLONE PHARMACEUTICALS, INC., priority 2010, published 2011)

System: oral mucositis in patients receiving chemoradiation for head and neck cancer
Experiment: Phase 2 randomized, double-blind, placebo-controlled trial: onset of oral mucositis (WHO OM Scale) in patients receiving CT/RT
Assay type: in vivo, human
Excerpt: OM is a painful, debilitating, and costly toxicity of different chemoradiotherapy (CT/RT) regimens used to treat head and neck cancer. This trial is a phase 2, randomized, double-blind, dose-ranging, placebo-controlled three-arm study in patients receiving CT/RT for the treatment of head and neck cancer, to assess the safety and tolerability of γ-D-glutamyl-L-tryptophan (SCV-07) as well as its efficacy in delaying the onset of severe OM as assessed by the WHO Oral Mucositis Scale.
The WHO OM Scale is the standard, validated instrument used in clinical trials to measure OM: Grade 0=none; Grade 1=erythema and soreness, no ulcers; Grade 2=ulcers, able to eat a solid diet; Grade 3=ulcers; requires a liquid diet; Grade 4=ulcers, not able to tolerate a solid or liquid diet, requires IV or tube feeding.
59 eligible patients with recently diagnosed, treatment naïve, pathologically-confirmed, non-metastatic squamous cell carcinoma of the oral cavity, oropharynx, hypopharynx or larynx were enrolled and treated with a concomitant regimen of CT/RT consisting of a continuous course of external beam irradiation (IMRT eligible) with a minimum cumulative dose of 50 Gray (Gy) and cisplatin monotherapy administered using standard weekly or tri-weekly dosing regimens (80-100 mg/m^2 administered on Days 0, 21 and 42) or weekly (30-40 mg/m^2). At least two ‘at risk’ intraoral sites were included in the radiation fields and received a cumulative RT dose of at least 50 Gy. Subjects were equally randomized to receive either placebo or one of two doses of γ-D-glutamyl-L-tryptophan (0.02 or 0.1 mg/kg) on each radiation day for up to 7 weeks.
Tables 2-7 summarize the statistics for the Full Analysis Set “FAS” (57 subjects), and the completer population (52 subjects), with respect to delay of onset of severe oral mucositis. Also see FIGS. 1 and 2.
SCV-07 efficacy, dosing and scheduling parameters were assessed in hamster models of acute, fractionated and concomitant chemoradiation (CRT). […] A multicenter, prospective, blinded, randomized trial evaluated SCV-07's ability to alter OM in CRT-treated HNC patients (n=57). Cytokine and gene microarray analyses were performed for samples obtained before and on the last radiation day.

[1] = 0.02 mg/kg vs placebo, Completer Population
[2] = 0.02 mg/kg, Completer Population
[3] = 0.02 mg/kg, Completer Population, at 30-<35 Gy
[4] = 0.02 mg/kg, Completer Population, at 35-<40 Gy
[5] = 0.02 mg/kg, Completer Population, at 40-<45 Gy
[6] = 0.02 mg/kg, Completer Population, at 45-<50 Gy
[7] = 0.02 mg/kg, Completer Population, at 50-<55 Gy
[8] = 0.02 mg/kg, Completer Population, at 55-<60 Gy
[9] = 0.02 mg/kg, Completer Population, at 65-<70 Gy
[10] = 0.02 mg/kg, Completer Population, at ≧70 Gy
[11] = 0.10 mg/kg vs placebo, Completer Population
[12] = 0.10 mg/kg, Completer Population

With N[C@H](CCC(=O)N[C@@H](Cc1c[nH]c2ccccc12)C(=O)O)C(=O)O [SCV-07, γ-D-glutamyl-L-tryptophan] the “Cox Regression Analysis of Time to Initial Occurrence of Sever OM, Hazard Ratio (95% CI)” value [1] was 1.884 (0.840, 4.225), the “Cox Regression Analysis of Time to Initial Occurrence of Ulcerative OM, Hazard Ratio (95% CI)” value [1] was 0.737 (0.377, 1.444) and the “Cox Regression Analysis of Time to Initial Occurrence of Severe OM, Hazard Ratio (95% CI)” value (0.02 mg/kg vs placebo, FAS population) was 1.989 (0.908, 4.357). The “Cumulative Dose of RT (Gy) at Initial Onset of Severe OM, Max” value (“Cumulative Dose of RT … of Severe OM, Max” below) [2] was 70 Gy, the “Cumulative Dose of RT (Gy) at Initial Onset of Severe OM, Mean (SD)” value (“Cumulative Dose … of Severe OM, Mean (SD)” for short) [2] was 43 (18.7) Gy and the “Cumulative Dose of RT (Gy) at Initial Onset of Severe OM, Median” value (from here on “Cumulative Dose of RT … of Severe OM, Median”) [2] was 34 Gy. For the same compound, the “Cumulative Dose of RT (Gy) at Initial Onset of Severe OM, Min” value (“Cumulative Dose of RT … of Severe OM, Min” for short) [2] was 18 Gy, the “Cumulative Dose of RT (Gy) at Initial Onset of Ulcerative OM, Max” value [2] was 62 Gy and the “Cumulative Dose of RT (Gy) at Initial Onset of Ulcerative OM, Mean (SD)” value [2] was 24 (12.9) Gy. For the same compound, the “Cumulative Dose of RT (Gy) at Initial Onset of Ulcerative OM, Median” value [2] was 22 Gy, the “Cumulative Dose of RT (Gy) at Initial Onset of Ulcerative OM, Min” value [2] was 6 Gy and the “Cumulative Dose of Radiation (Gy) Prior to Initial Occurrence of Severe OM (Delay to Onset of Severe OM), K-M Estimate, Mean (SE)” value [2] was 42 (4.2) Gy. The “Cumulative Dose of Radiation (Gy) Prior to Initial Occurrence of Severe OM, K-M Estimate, 25%-75%” value [2] was 28-62 Gy, the “Cumulative Dose of Radiation (Gy) Prior to Initial Occurrence of Severe OM, K-M Estimate, Median (95% CI)” value [2] was 34 (28, 62) Gy and the “Cumulative Dose of Radiation (Gy) Prior to Initial Occurrence of Ulcerative OM (Delay to Onset of Ulcerative OM), K-M Estimate, Mean (SE)” value [2] was 24 (3.1) Gy. For the same compound, the “Cumulative Dose of Radiation (Gy) Prior to Initial Occurrence of Ulcerative OM, K-M Estimate, 25%-75%” value [2] was 18-30 Gy, the “Cumulative Dose of Radiation (Gy) Prior to Initial Occurrence of Ulcerative OM, K-M Estimate, Median (95% CI)” value [2] was 22 (18, 30) Gy and the “Time (Days) to Initial Occurrence of Sever OM, K-M Estimate, 25%-7%” value [2] was 18 to 42 days. The “Time (Days) to Initial Occurrence of Sever OM, K-M Estimate, Mean (SE)” value [2] was 28 (3.0) Days, the “Time (Days) to Initial Occurrence of Sever OM, K-M Estimate, Median (95% CI)” value [2] was 25 (18, 42) Days and the “Time (Days) to Initial Occurrence of Ulcerative OM, K-M Estimate, 25%-7%” value [2] was 10 to 20 days. For the same compound, the “Time (Days) to Initial Occurrence of Ulcerative OM, K-M Estimate, Mean (SE)” value [2] was 16 (2.2) Days, the “Time (Days) to Initial Occurrence of Ulcerative OM, K-M Estimate, Median (95% CI)” value [2] was 15 (10, 20) Days and the “Cum. Percent of Subjects with Ulcerative OM (WHO > 1)” value (from here on “Cum. Percent of Subjects … (WHO > 1)”) (0.02 mg/kg, Completer Population, at 5-<10 Gy) was 6% (1%, 35%). The “Cum. Percent of Subjects … (WHO > 1)” value (0.02 mg/kg, Completer Population, at 10-<15 Gy) was 18% (6%, 45%), the “Cum. Percent of Subjects … (WHO > 1)” value (0.02 mg/kg, Completer Population, at 15-<20 Gy) was 41% (22%, 67%) and the “Cum. Percent of Subjects … (WHO > 1)” value (0.02 mg/kg, Completer Population, at 20-<25 Gy) was 59% (37%, 81%). The “Cum. Percent of Subjects … (WHO > 1)” value (0.02 mg/kg, Completer Population, at 25-<30 Gy) was 76% (55%, 93%), the “Cum. Percent of Subjects with Severe OM (WHO > 2)” value (shortened to “Cum. Percent … (WHO > 2)”) [3] was 53% (32%, 77%) and the “Cum. Percent of Subjects … (WHO > 1)” value [3] was 88% (69%, 98%). For the same compound, the “Cum. Percent … (WHO > 2)” value [4] was 53% (32%, 77%), the “Cum. Percent of Subjects … (WHO > 1)” value [4] was 94% (76%, 100%) and the “Cum. Percent … (WHO > 2)” value [5] was 59% (37%, 81%). The “Cum. Percent of Subjects … (WHO > 1)” value [5] was 94% (76%, 100%), the “Cum. Percent … (WHO > 2)” value [6] was 59% (37%, 81%) and the “Cum. Percent of Subjects … (WHO > 1)” value [6] was 94% (76%, 100%). For the same compound, the “Cum. Percent … (WHO > 2)” value [7] was 65% (43%, 86%), the “Cum. Percent of Subjects … (WHO > 1)” value [7] was 94% (76%, 100%) and the “Cum. Percent … (WHO > 2)” value [8] was 71% (49%, 89%). For the same compound, the “Cum. Percent of Subjects … (WHO > 1)” value [8] was 94% (76%, 100%), the “Cum. Percent of Subjects … (WHO > 1)” value (0.02 mg/kg, Completer Population, at 60-<65 Gy) was 100% (76%, 100%) and the “Cum. Percent … (WHO > 2)” value (0.02 mg/kg, Completer Population, at 60->65 Gy) was 78% (56%, 94%). The “Cum. Percent … (WHO > 2)” value [9] was 78% (56%, 94%), the “Cum. Percent of Subjects … (WHO > 1)” value [9] was 100% (76%, 100%) and the “Cum. Percent of Subjects … (WHO > 1)” value (0.02 mg/kg, Completer Population, at <5 Gy) was 0% (0%, 0%). The “Cum. Percent … (WHO > 2)” value (0.02 mg/kg, Completer Population, at <30 Gy) was 35% (18%, 62%), the “Cum. Percent … (WHO > 2)” value [10] was 78% (56%, 94%) and the “Cum. Percent of Subjects … (WHO > 1)” value [10] was 100% (76%, 100%). The “Cumulative Dose of RT … of Severe OM, Max” value (0.02 mg/kg, FAS population) was 70 Gy, the “Cumulative Dose … of Severe OM, Mean (SD)” value (0.02 mg/kg, FAS population) was 41 (18.0) Gy and the “Cumulative Dose of RT … of Severe OM, Median” value (0.02 mg/kg, FAS population) was 33 Gy. The “Cumulative Dose of RT … of Severe OM, Min” value (0.02 mg/kg, FAS population) was 18 Gy, the “Cumulative Dose of Radiation (Gy) Prior to Initial Occurrence of Severe OM (Delay to Onset of Severe OM), K-M Estimate, Mean (SE)” value (0.02 mg/kg, FAS population) was 41 (3.8) Gy and the “Cumulative Dose of Radiation (Gy) Prior to Initial Occurrence of Severe OM, K-M Estimate, 25%-75%” value (0.02 mg/kg, FAS population) was 28-62 Gy. The “Cumulative Dose of Radiation (Gy) Prior to Initial Occurrence of Severe OM, K-M Estimate, Median (95% CI)” value (0.02 mg/kg, FAS population) was 34 (29, 59) Gy, the “Time (Days) to Initial Occurrence of Severe OM, K-M Estimate, 25%-7%” value (0.02 mg/kg, FAS population) was 18 to 42 days and the “Time (Days) to Initial Occurrence of Severe OM, K-M Estimate, Mean (SE)” value (0.02 mg/kg, FAS population) was 28 (2.7) Days. The “Time (Days) to Initial Occurrence of Severe OM, K-M Estimate, Median (95% CI)” value (0.02 mg/kg, FAS population) was 24 (19, 41) Days, the “Cum. Percent … (WHO > 2)” value (0.02 mg/kg, FAS population, at 30-<35 Gy) was 52% (32%, 75%) and the “Cum. Percent … (WHO > 2)” value (0.02 mg/kg, FAS population, at 35-<40 Gy) was 58% (37%, 79%). For the same compound, the “Cum. Percent … (WHO > 2)” value (0.02 mg/kg, FAS population, at 40-<45 Gy) was 63% (42%, 83%), the “Cum. Percent … (WHO > 2)” value (0.02 mg/kg, FAS population, at 45-<50 Gy) was 63% (42%, 83%) and the “Cum. Percent … (WHO > 2)” value (0.02 mg/kg, FAS population, at 50-<55 Gy) was 68% (47%, 87%). For the same compound, the “Cum. Percent … (WHO > 2)” value (0.02 mg/kg, FAS population, at 55-<60 Gy) was 73% (53%, 90%), the “Cum. Percent … (WHO > 2)” value (0.02 mg/kg, FAS population, at 60-<65 Gy) was 80% (59%, 94%) and the “Cum. Percent … (WHO > 2)” value (0.02 mg/kg, FAS population, at 65-<70 Gy) was 80% (59%, 94%). The “Cum. Percent … (WHO > 2)” value (0.02 mg/kg, FAS population, at >30 Gy) was 36% (19%, 61%), the “Cum. Percent … (WHO > 2)” value (0.02 mg/kg, FAS population, at ≧70 Gy) was 80% (59%, 94%) and the “Cox Regression Analysis of Time to Initial Occurrence of Sever OM, Hazard Ratio (95% CI)” value [11] was 1.002 (0.433, 2.319). For the same compound, the “Cox Regression Analysis of Time to Initial Occurrence of Ulcerative OM, Hazard Ratio (95% CI)” value [11] was 0.475 (0.225, 1.004), the “Cox Regression Analysis of Time to Initial Occurrence of Severe OM, Hazard Ratio (95% CI)” value (0.10 mg/kg vs placebo, FAS population) was 1.100 (0.484, 2.500) and the “Cumulative Dose of RT … of Severe OM, Max” value [12] was 72 Gy. The “Cumulative Dose … of Severe OM, Mean (SD)” value [12] was 55 (14.8) Gy, the “Cumulative Dose of RT … of Severe OM, Median” value [12] was 57 Gy and the “Cumulative Dose of RT … of Severe OM, Min” value [12] was 20 Gy. For the same compound, the “Cumulative Dose of RT (Gy) at Initial Onset of Ulcerative OM, Max” value [12] was 68 Gy and the “Cumulative Dose of RT (Gy) at Initial Onset of Ulcerative OM, Mean (SD)” value [12] was 31 (16.6) Gy.
